Results on 17 compounds are retold here after patent US20250320184A1 (SIRONAX LTD., priority 2022, published 2025).

Each structure is given as a SMILES string. Bounds are passed on as bounds.

The first assay concerns the target T1, SARM1 (50-724) (Homo sapiens, UniProt Q6SZW1).
T1 sequence (Q6SZW1 50-724): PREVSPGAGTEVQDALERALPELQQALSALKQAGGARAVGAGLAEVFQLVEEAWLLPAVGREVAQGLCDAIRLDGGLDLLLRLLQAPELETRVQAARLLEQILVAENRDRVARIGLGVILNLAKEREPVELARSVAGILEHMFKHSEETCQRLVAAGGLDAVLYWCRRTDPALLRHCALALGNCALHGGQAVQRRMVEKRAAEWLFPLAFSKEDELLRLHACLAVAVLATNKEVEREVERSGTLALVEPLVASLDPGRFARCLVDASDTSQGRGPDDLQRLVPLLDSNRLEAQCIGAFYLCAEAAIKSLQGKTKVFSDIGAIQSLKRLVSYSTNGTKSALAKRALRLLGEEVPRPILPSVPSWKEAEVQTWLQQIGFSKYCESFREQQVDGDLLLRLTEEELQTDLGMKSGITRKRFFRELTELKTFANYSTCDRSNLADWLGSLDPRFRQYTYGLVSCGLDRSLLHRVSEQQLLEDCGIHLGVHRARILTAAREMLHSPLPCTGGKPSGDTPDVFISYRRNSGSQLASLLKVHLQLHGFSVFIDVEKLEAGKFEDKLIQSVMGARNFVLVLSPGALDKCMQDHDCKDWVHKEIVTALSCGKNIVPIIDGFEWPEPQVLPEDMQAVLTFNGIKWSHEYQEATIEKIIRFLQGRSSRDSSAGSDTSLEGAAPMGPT
Put plainly: SARM1 (50-724) enzymatic assay. The conditions noted are these: SARM1 inhibitory activity; purified SARM1 (50-724) 2 nM, 200 μM NMN activator, 100 μM NAD+ substrate, LC-MS/MS.
Description: An enzymatic assay was performed in a 384-well plate using Dulbecco's phosphate-buffered saline (PBS) as the reaction buffer. […] The reaction was initiated by adding a mixture of 200 μM nicotinamide mononucleotide (NMN) as activator and 100 μM NAD^+ as substrate. After 1 h of incubation at room temperature, the reaction was terminated with 10 times volume of 70% acetonitrile, then centrifuged at 3800 rpm for 10 min.
One may read the IC50 as the concentration at which inhibition is half-maximal. Low values mean greater potency, high ones weaker potency. `CC(Nc1ccc2cc[nH]c(=O)c2c1)c1nccc(Cl)c1Cl` (racemic) [Example 194, 7-((1-(3,4-dichloropyridin-2-yl)ethyl)amino)isoquinolin-1(2H)-one] displayed a 50% inhibitory concentration (IC50) of under 100 nM. Still for that read-out and setting: to `CC(Nc1ccc2c(c1)C(=O)NCC2)c1cccc(Cl)c1Cl` (single isomer, unassigned) [Example 112] belongs under 100 nM.

The target of a further assay is T1, SARM1 (50-724). Put plainly: biochemical.
Conditions: not given
Compound `CC1(C)CCCCN1S(=O)(=O)Nc1ccc2c(c1)C(=O)NCC2` [Example 168, 2,2-dimethyl-N-(1-oxo-1,2,3,4-tetrahydroisoquinolin-7-yl)piperidine-1-sulfonamide] displayed an IC50 of over 1000 nM.

Consider `Cc1cc(F)cc(C(C#N)Nc2ccc3c(c2)C(=O)NCC3)c1` (centres unmarked) [Example 173, 2-(3-fluoro-5-methylphenyl)-2-((1-oxo-1,2,3,4-tetrahydroisoquinolin-7-yl)amino)acetonitrile], for which the half-inhibitory concentration (IC50) is over 1000 nM. Consider `Cc1cc(F)cc(C(Nc2ccc3c(c2)C(=O)NCC3)C(F)(F)F)c1` (centres unmarked) [Example 174, 7-((2,2,2-trifluoro-1-(3-fluoro-5-methylphenyl)ethyl)amino)-3,4-dihydroisoquinolin-1(2H)-one], for which the IC50 fell in the range of 100 to 500 nM. The same measure, in the same setting: as for `Cc1cc(F)cc(C2(Nc3ccc4c(c3)C(=O)N(C)CC4)COC2)c1` [Example 175, 7-((3-(3-fluoro-5-methylphenyl)oxetan-3-yl)amino)-2-methyl-3,4-dihydroisoquinolin-1(2H)-one], the figure is over 1000 nM; as for `Cc1cc(F)cc(C(CO)Oc2ccc3c(c2)C(=O)NCC3)c1` (centres unmarked) [Example 176, 7-(1-(3-fluoro-5-methylphenyl)-2-hydroxyethoxy)-3,4-dihydroisoquinolin-1(2H)-one], over 1000 nM.

`Cc1cc(F)cc(C(Nc2ccc3c(c2)C(=O)NCC3)c2ccncc2)c1` (centres unmarked) [Example 177, 7-(((3-fluoro-5-methylphenyl)(pyridin-4-yl)methyl)amino)-3,4-dihydroisoquinolin-1(2H)-one] displayed a concentration for half-maximal inhibition (IC50) of over 1000 nM. For the compound `Clc1cccc(C(Nc2ccc3cccnc3c2)C2CCC2)c1Cl` (centres unmarked) [Example 179, N-(cyclobutyl(2,3-dichlorophenyl)methyl)quinolin-7-amine], the IC50 is 100 to 500 nM. On the same count and under the same terms, to `Clc1cccc(C(Nc2ccc3cccnc3c2)C2CC2)c1Cl` (centres unmarked) [Example 180, N-(cyclopropyl(2,3-dichlorophenyl)methyl)quinolin-7-amine] belongs 100 to 500 nM; to `CC(Nc1ccc2c(c1)NC(=O)OC2)c1cccc(Cl)c1Cl` (centres unmarked) [Example 181, 7-((1-(2,3-dichlorophenyl)ethyl)amino)-1,4-dihydro-2H-benzo[d][1,3]oxazin-2-one], 100 to 500 nM; to `CC(Nc1ccc2cn[nH]c(=O)c2c1)c1c(Cl)ccc(F)c1Cl` (centres unmarked) [Example 199], under 100 nM.

With `O=c1[nH]ccc2ccc(OC(CO)c3cccc(Cl)c3Cl)cc12` (centres unmarked) [Example 228, 7-(1-(2,3-dichlorophenyl)-2-hydroxyethoxy)isoquinolin-1(2H)-one], the IC50 is 100 to 500 nM.

Consider `CC1(C)C(=O)N(CC(=O)N2CCCCC2)c2cc(NS(=O)(=O)c3cccc(Cl)c3Cl)ccc21` [Example 286, 2,3-dichloro-N-(3,3-dimethyl-2-oxo-1-(2-oxo-2-(piperidin-1-yl)ethyl)indolin-6-yl)benzenesulfonamide], for which the 50% inhibitory concentration (IC50) is under 100 nM. `CC1(C)C(=O)N(CC(=O)NCCO)c2cc(NS(=O)(=O)c3cccc(Cl)c3Cl)ccc21` [Example 287, 2-(6-((2,3-dichlorophenyl)sulfonamido)-3,3-dimethyl-2-oxoindolin-1-yl)-N-(2-hydroxyethyl)acetamide]: the IC50 is under 100 nM.

In turn, `CC1(C)C(=O)N(CC(=O)N2CCOCC2)c2cc(NS(=O)(=O)c3cccc(Cl)c3Cl)ccc21` [Example 291, 2,3-dichloro-N-(3,3-dimethyl-1-(2-morpholino-2-oxoethyl)-2-oxoindolin-6-yl)benzenesulfonamide] displayed an IC50 of under 100 nM. `Cc1c2ccc(NC(C)(C)c3nc(Cl)c(Cl)s3)cc2nn1CC(N)=O` [Example 360, 2-(6-((2-(4,5-dichlorothiazol-2-yl)propan-2-yl)amino)-3-methyl-2H-indazol-2-yl)acetamide] registered an IC50 of under 100 nM.
